Columns and labels:
[1] = test system: RNAs of FIG. 2 (SEQ ID NOs: 1 through 3), with or without bulge structure; assay: Evaluation of binding between xanthone fluorescent molecule and RNA (fluorescence before and after mixing RNA); settings: 10 μM compound, 30 μM RNA (A, U, C, G bulge or no bulge), cacodylate buffer pH 7.0, NaCl 100 mM
Experimental: Next, binding between X2S and RNAs was evaluated. The RNAs used in the present example had the structure illustrated in FIG. 2. FIG. 2 is a diagram schematically illustrating the structure of the RNAs used in the present example. The RNAs used in the present example had sequences shown in SEQ ID NOs: 1 through 3.
The symbol N in FIG. 2 represents either a base out of A, U, C, and G, or no base. Thus, in a case where a particular RNA as in FIG. 2 has N representing a base out of A, U, C, and G, the RNA is an RNA formed by hybridization of an RNA having the base sequence shown in SEQ ID NO: 1 with a single strand RNA having the base sequence shown in SEQ ID NO: 2. On the other hand, in a case where a particular RNA as in FIG. 2 has N representing no base, the RNA is an RNA formed by hybridization of an RNA having the base sequence shown in SEQ ID NO: 1 with an RNA having the base sequence shown in SEQ ID NO: 3.
This also applies to other bases. The RNAs used in the present example were purchased from Hokkaido System Science Co., Ltd.
Firstly, X2S was mixed in a cacodylate buffer solution (sodium cacodylate: 10 mM, pH 7.0; NaCl: 100 mM) at 10 μM, so that an X2S solution was obtained. The X2S solution was irradiated with light having an absorption maximum of 371±3 nm, and a fluorescence intensity was then measured. The fluorescence intensity was measured with use of a device (product number: RF-5300PC) available from Shimadzu Corporation. For each type of the RNAs, the fluorescence intensity was measured after the RNA was mixed in the X2S solution at 30 μM.
FIGS. 3 and 4 compare the fluorescence intensities measured before and after the RNA was mixed. […] The horizontal axis represents the fluorescence wavelength, whereas the vertical axis represents the fluorescence intensity. FIG. 4 is an enlarged graph corresponding to the fluorescence intensity of 5 A.U. in FIG. 3 and its vicinity.
Binding between X1S and RNAs was evaluated by a method identical to the method described in Example 2, except that X1S was used instead of X2S. […]

RRE = assay: Displacement assay using X2S; assay type: binding, HIV-1
Description: In this Example, X2S was used to measure a binding affinity between a test substance and RRE. As the test substance, Rev protein (supplied by Professor Takashi MORII, Graduates School of Energy Science, Kyoto University), aminoglycoside antibiotic neomycin (available from Sigma-Aldrich, product number; N-1876) (hereinafter, simply referred to as “neomycin”), and thrombin (available from Bachem, product number; AG H-8550) were used. […] The structure of Rev protein is shown in FIG. 9, and the amino acid sequence of Rev protein is shown in SEQ ID NO: 5. FIG. 9 is a view schematically illustrating the structure of Rev protein. Further, the structure of thrombin is shown in FIG. 10, and the amino acid sequence of thrombin is shown in SEQ ID NO: 6. FIG. 10 is a view schematically illustrating the structure of thrombin.
Firstly, in the same manner as in Example 3, X2S and RRE were dissolved in a cacodylate buffer solution (sodium cacodylate: 10 mM, pH 7.0; NaCl: 100 mM) each at 2 μM. Thus, an X2S-RRE solution was prepared.
To the X2S-RRE solution, Rev protein was added in steps at 0 μM, 0.4 μM, 0.8 μM, 1.2 μM, 1.6 μM, 2.0 μM, 2.4 μM, 2.8 μM, 3.2 μM, 3.6 μM, and 4.0 μM. Further, a fluorescence intensity was measured at each concentration. Similarly, to the X2S-RRE solution, neomycin was added in steps at 0 μM, 0.4 μM, 0.8 μM, 1.2 μM, 1.6 μM, 2.0 μM, 2.4 μM, 2.8 μM, 3.2 μM, 3.6 μM, and 4.0 μM. Further, a fluorescence intensity was measured at each concentration. Similarly, to the X2S-RRE solution, thrombin was added in steps at 0 μM, 0.4 μM, 0.8 μM, 1.2 μM, 1.6 μM, 2.0 μM, 2.4 μM, 2.8 μM, 3.2 μM, 3.6 μM, and 4.0 μM. Further, a fluorescence intensity was measured at each concentration. The fluorescence intensities were measured in the same manner as that described in Example 2.
FIG. 11 is a view illustrating a result of the measurement of a binding affinity between Rev protein and RRE; FIG. 12 is a view illustrating a result of the measurement of a binding affinity between neomycin and RRE; and FIG. 13 is a view illustrating a result of the measurement of a binding affinity between thrombin and RRE. In each of FIGS. 11 to 13, the horizontal axis represents the fluorescence wavelength, whereas the vertical axis represents the fluorescence intensity. […] Furthermore, along the direction of the arrow extending from the curved line at the bottom, the curved lines are arranged in order of increasing amount of the test substance which was added.
FIG. 14 is a view plotting the fluorescence intensities at a fluorescence wavelength of 453 nm shown in the results illustrated in FIGS. 11 to 13. The horizontal axis represents the concentration of each test substance, whereas the vertical axis represents the fluorescence intensity. In FIG. 14, the circle marks represent the result obtained in the case involving use of Rev protein, the square marks represent the result obtained in the case involving use of neomycin, and the triangle marks represent the result obtained in the case involving use of thrombin.
A displacement assay using X2S was performed in the same manner as that described in Example 5, except that, in this Example, fluorescence was measured also when Rev protein was added at concentrations of 4.4 μM and 4.8 μM.
FIG. 16 is a view illustrating the result of the displacement assay using X2S. The horizontal axis represents the fluorescence wavelength, whereas the vertical axis represents the fluorescence intensity.

In the case of `NCCOc1ccc2oc3ccc(OCCN)cc3c(=O)c2c1` [X2S, 2,7-bis(2-aminoethoxy)xanthen-9-one], the “binding to RNAs” value [1] is reported as “capable of binding to RNAs having various structures”, the “change in the fluorescence intensity, X2S compared with ethidium bromide” value (RRE; FIG. 11 compared with FIG. 15) is reported as “greater in the case involving use of X2S than in the case involving use of ethidium bromide” and the “concentration at which a change in fluorescence intensity was still clearly observed” value (RRE; Rev protein up to 4.8 μM) is reported as 3.2 µM. For the same molecule, the “ultimate increase of fluorescence intensity” value (RRE; Rev protein up to 4.8 μM) was “approximately 80%”.

Source: patent US8741659B2, “Composition for measuring the binding affinity between nucleic acid and test substance, and use thereof” (Osaka University, priority 2007, dated 2014)
